Peptide text beside a SMILES is read from it. * marks the point of attachment. X1 = Oc1cccc(N*)c1 Where only a bound is given, the exact number is not on record here.

Consider nine molecules from ChEMBL document CHEMBL1759903, “Pentacycloundecane-based inhibitors of wild-type C-South African HIV-protease” (Bioorg Med Chem Lett, 2011).

Protease, sequence (Q9YQ12 whole entry): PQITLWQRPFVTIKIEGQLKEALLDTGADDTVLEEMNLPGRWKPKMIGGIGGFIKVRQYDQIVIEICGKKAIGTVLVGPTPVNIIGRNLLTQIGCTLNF

This assay concerns the target Protease (Human immunodeficiency virus 1, UniProt Q9YQ12). Description: Inhibition of HIV1 subtype C protease expressed in Escherichia coli BL21 assessed as hydrolysis of substrate using chromogenic substrate Lys-Ala-Arg-Val-Nle-p-nitro-Phe-Glu-Ala-Nle-NH2 by spectrophotometric analysis.
As a reminder, the IC50 is the concentration at which inhibition is half-maximal. With `CC[C@H](C)[C@H](NC(=O)[C@@H](N)CO)C(=O)N[C@@H](C)C(=O)N[C@]12NC(=O)[C@@]3(O)C4C5CC(C6C5C3C61)C42` (some centres undefined), the IC50 is 500 nM.

Take `CC[C@H](C)[C@H](NC(=O)[C@@H](N)CO)C(=O)N[C@@H](C)C(=O)N[C@@]12NC(=O)[C@]3(O)C4C5CC(C6C5C3C61)C42` (some centres undefined): the IC50 amounted to 10000 nM.

As for `CC[C@H](C)[C@H](NC(=O)[C@@H](N)CO)C(=O)N[C@@H](C)C(=O)N[C@@H](CCC(=O)O)C(=O)Nc1cccc(O)c1` (H-SIAE-X1), the IC50 came out at 10000 nM.

For the molecule `CC[C@H](C)[C@H](NC(=O)[C@@H](N)CO)C(=O)N[C@@H](C)C(=O)N[C@@H](CCC(=O)O)C(=O)NC12NC(=O)C3(O)C4C5CC(C6C5C3C61)C42` (mixture of isomers), the IC50 was found to be 78 nM.

On to `CC[C@H](C)[C@H](NC(=O)[C@@H](N)CO)C(=O)N[C@@H](C)C(=O)N[C@@H](CCC(=O)O)C(=O)NC12NC(=O)C3(OC(C)=O)C4C5CC(C6C5C3C61)C42` (mixture of isomers), for which the IC50 is more than 10000 nM.

For `CC[C@H](C)[C@H](N)C(=O)N[C@@H](C)C(=O)N[C@@H](CCC(=O)O)C(=O)NC12NC(=O)C3(O)C4C5CC(C6C5C3C61)C42` (mixture of isomers), the IC50 was 500 nM.

In the case of `CC[C@H](C)[C@H](NC(=O)[C@@H](N)CO)C(=O)N[C@H](C(=O)N[C@@H](CCC(=O)O)C(=O)NC12NC(=O)C3(O)C4C5CC(C6C5C3C61)C42)C(C)C` (mixture of isomers), the IC50 was 2000 nM.

Turning to `CC[C@H](C)[C@H](NC(=O)[C@@H](N)CO)C(=O)N[C@@H](C)C(=O)N[C@@H](CCC(N)=O)C(=O)NC12NC(=O)C3(O)C4C5CC(C6C5C3C61)C42` (mixture of isomers), the IC50 was determined as 5000 nM.

For the molecule `COC(=O)N[C@H](C(=O)N[C@@H](Cc1ccccc1)[C@@H](O)CN(Cc1ccc(-c2ccccn2)cc1)NC(=O)[C@@H](NC(=O)OC)C(C)(C)C)C(C)(C)C` [ATAZANAVIR], the IC50 stood at 4 nM.
